In US20260041732A1, “USE OF APELIN FOR THE TREATMENT OF LYMPHEDEMA” (INSTITUT NATIONAL DE LA SANTE ET DE LA RECHERCHE MEDICALE, priority 2022, published 2026):

Legend:
[1] = system: C57B1/6 female mice; assay: Mouse model of secondary lymphedema, limb size measured using caliper; format: in vivo; settings: LV-apelin treated mice submitted to L-NAME treatment
Procedure: Mouse procedures were performed in accordance with EU and national regulation. C57B1/6 mouse were provided by Envigo. All experiments have been approved by the local branch Inserm Rangueil-Purpan of the Midi-Pyrénées ethics committee. Secondary lymphedema was established as previously described (Morfoisse et al. 2018). Briefly, lymphedema was established in the left upper limb of 6 weeks-old C57B1/6 female mice. A partial mastectomy of the second mammary gland is performed in association with axillary and brachial lymphadenectomy. Limb size was measured over time in the axillary region using caliper. Mice sustained edema for a period of 2 weeks. The day of the surgery, PBS or apelin lentiviral vector were injected in intradermic in the lymphedema limb (3 injections of 4 μL). […] For L-NAME (N^G-nitro-L-arginine methyl ester) (Sigma) treatment, L-NAME was resuspended in water (1 mg/ml) and mice were allowed to drink freely for 7 days.

[2] = system: C57B1/6 female mice; assay: Lymphangiography with FITC-Dextran in lymphedema mouse model; format: in vivo; settings: two weeks after surgery
Procedure: Two weeks after surgery, mice were anesthetized with an intraperitoneal injection of ketamine (100 mg/kg) (Zoletil 100, Virbac) and xylazine (10 mg/kg) (Rompun 2%, Bayer). FITC-Dextran ([…], 2 mg/mL, Sigma) was injected into the footpad of lymphedema and control limb. The fluorescent molecule was taken up by the lymphatics and excluded from the blood vessels. After 5 min, the skin was analyzed under the modular stereo microscope discovery. V12 stereo (Zeiss).

[3] = system: C57B1/6 female mice; assay: Evaluation of dermis fibrosis, Masson's trichrome coloration; format: in vivo, mouse; settings: lymphedema limb skin
Procedure: Dermis fibrosis was evaluated with Masson's trichrome coloration (MST-100T, Cliniscience). Skin sections were deparraffinized and tissue were stained according the manufacturer's recommendations. Images were acquired on a nanozoomer slide scanner. Dermis size quantification was performed using at least 10 measurements of the length between epidermis and hypodermis per field.

[4] = system: C57B1/6 female mice; assay: Histology of skin sections, Lyve1 and CD31 immunostaining; format: in vivo, mouse; settings: lymphedema limb skin
Procedure: Skin of lymphedema and control limb were collected 2 weeks after surgery and fixed in 10% neutral buffered formalin O/N at 4° C. Tissue are then embedded in paraffin and sectioned on a microtome. 5 μm sections were cut and placed on Superfrost Plus slides. Tissue were deparaffinized, rehydrated and antigen unmasking was realized with pH 9 Tris solution (H-3301, Vector Laboratories) 5 min three times in a microwave. After cooling, slides were washed in PBS and then blocked with 5% BSA solution at room temperature in humid chamber. Sections were incubated with primary antibodies O/N at 4° C. (Goat anti-murine Lyvel, R&D AF2125; rabbit anti-CD31, abcam Ab28364) and washed three times in PBS. Sections were incubated with the corresponding secondary antibodies conjugated to Alexa-488 or -594 for 1h at room temperature au 1/400 dilution. DNA was stained with DAPI. Slides were mounted with Dako Fluorescence Mounting Medium (S3023). Images were acquired a fluorescent inverted microscope (Leica, DMi8). Images were analysed with Fiji software.

[5] = system: afferent collecting lymphatic vessels to the popliteal lymph node; assay: Collecting vessel contraction measures (intravital imaging); format: in vivo, mouse; settings: L-NAME in drinking water 7 days
Procedure: Vessel contraction measurement of afferent collecting lymphatic vessels to the popliteal lymph node (PLN) were performed as described previously (Liao S. et al.). Briefly mice were anesthetized with an intraperitoneal injection of ketamine (100 mg/Kg) and xylazine (10 mg/kg). 6 μL of FITC-Dextran was injected into the footpad of the lower right limb. The skin is carefully removed to expose afferent collecting lymphatic vessels to the PLN. Mouse is then placed into a petri dish and onto the stage of an inverted microscope (Leica, DMi8). 4 videos of 90 sec were acquired per mice and the number of contraction and dilatation (difference between maximum and minimum diameter) was analysed using Fiji software. To assess the effect of Apelin, lentiviral vector was injected into the derm in the lower right limb 7 days before the experiment. For L-NAME study, mice were allowed to drink freely for 7 days.

[6] = system: Human dermal lymphatic endothelial cells (HDLEC); assay: Bulk RNA-sequencing, differential gene expression and GO analysis; format: cell-based; settings: compared to WT
Procedure: Human dermal lymphatic endothelial cells (HDLEC) (single donor, juvenile foreskin, Promocell, C-12216, >95% of the cells are CD31 positive and podoplanin positive) were cultured in Endothelial Cell Media MV2 (EGM-MV2, Promocell, C-22121). NIH3T3 were cultured in Dulbecco's modified Eagle's medium (DMEM, Sigma, D6429) supplemented with 10% fetal bovine serum (FBS, Gibco, 10270-06) and 1% penicillin-streptomycin. Endothelial cells were used at passage 3-6 and human fibroblasts were used at passage 4-7. Cells were cultured at 37° C. in a 5% CO2 incubator. Culture medium was changed 3 times a week, and the cells were passaged ⅓. For collecting conditioned media, NIH3T3 were grown in 10 cm dishes, after reaching confluence, medium was removed and the cells were washed once with PBS. NIH3T3 were cultured overnight in 5 mL reduced serum medium optiMEM (Gibco), the medium was then collected and used for experiments. HDLEC were treated with 50% conditioned media/50% MV2-05% FBS. Total RNA from HDLEC transduced or not with Apelin Lentivector were prepared using the RNeasy mini kit (Qiagen 74106). Total RNA were then subjected to ribosomal-RNA depleted RNA sequencing (RNA-Seq) protocol performed by Genewiz company using Illumina HiSeq, PE 2×150 configuration. Sequence reads were trimmed to remove possible adapter sequences and nucleotides with poor quality using Trimmomatic v.0.36. The trimmed reads were mapped to the Homo sapiens GRCh38 reference genome available on ENSEMBL using the STAR aligner v.2.5.2b. The STAR aligner is a splice aligner that detects splice junctions and incorporates them to help align the entire read sequences. BAM files were generated as a result of this step. Unique gene hit counts were calculated by using feature Counts from the Subread package v.1.5.2. The hit counts were summarized and reported using the gene_id feature in annotation file. Only unique reads that fell within exon regions were counted. Distribution of read counts in libraries were examined before and after normalization. The original read counts were normalized to adjust for various factors such as variations of sequencing yield between samples. These normalized read counts were used to accurately determine differentially expressed genes. Data quality assessments were performed to detect any samples that are not representative of their group, and thus, may affect the quality of the analysis. The overall similarity among samples were assessed by the Euclidean distance between samples. This method was used to examine which samples are similar/different to each other and if they fit to the expectation from the experiment design. The shorter the distance, the more closely related the samples are. Samples were then clustered by using the distance. A principal component analysis was also performed to reveal the similarity between samples based on the distance matrix. After extraction of gene hit counts, the gene hit counts table was used for downstream differential expression analysis. Using DESeq2, a comparison of gene expression between Apelin transduced LEC against non-transduced LEC was performed. The Wald test was used to generate p-values and log2 fold changes. […] The global transcriptional change across the two groups compared was visualized by a volcano plot. Each data point in the volcano plot represents a gene. The log2 fold change of each gene is represented on the x-axis and the log10 of its adjusted p-value is on the y-axis.

[7] = system: Human dermal lymphatic endothelial cells (HDLEC); assay: Immunoblotting of AKT, ERK and eNOS phosphorylation; format: cell-based; settings: conditioned media
Procedure: Human dermal lymphatic endothelial cells (HDLEC) (single donor, juvenile foreskin, Promocell, C-12216, >95% of the cells are CD31 positive and podoplanin positive) were cultured in Endothelial Cell Media MV2 (EGM-MV2, Promocell, C-22121). NIH3T3 were cultured in Dulbecco's modified Eagle's medium (DMEM, Sigma, D6429) supplemented with 10% fetal bovine serum (FBS, Gibco, 10270-06) and 1% penicillin-streptomycin. Endothelial cells were used at passage 3-6 and human fibroblasts were used at passage 4-7. Cells were cultured at 37° C. in a 5% CO2 incubator. Culture medium was changed 3 times a week, and the cells were passaged ⅓. For collecting conditioned media, NIH3T3 were grown in 10 cm dishes, after reaching confluence, medium was removed and the cells were washed once with PBS. NIH3T3 were cultured overnight in 5 mL reduced serum medium optiMEM (Gibco), the medium was then collected and used for experiments. HDLEC were treated with 50% conditioned media/50% MV2-05% FBS.
Cells were scrapped and lysed in RIPA buffer (RIPA 2X, Biotech RB4476) supplemented with phosphatase inhibitor (PhosSTOP Easypack, Roche0490687001) and protease inhibitors (protease inhibitor cocktail, Sigma Aldrich). Lysates were centrifuged at 13500 g for 10 minutes at 4° C. Supernatants were then collected and mix with Laemmli buffer containing dithiothreitol (DTT 1 mM). Protein were resolved on 4-15% SDS-PAGE gels and transferred to nitrocellulose membrane (Trans-Blot Turbo RTA transfer kit, #1704271, Biorad). Membranes were blocked for 1h at room temperature in 5% BSA-TBS-T (TBS-0.1% Tween 20) and probed with primary antibody overnight at 4° C. Antibody used are the following: Phospho AKT: AKT-p ser473 (CS #4060S), AKT: santa cruz H136 (S8312), Phospho ERK: ERK1/2-p (MAPKp42/44) (Thr202/Thr204) (cell signalling #9106), ERK ERK1/2-(MAPKp42/44) (Thr202/Thr204) (cell signalling #9102), Phospho eNOS (cell signalling #9571S), eNOS (cell signalling #5880S), E2F8 (Abcam, AB109596), VEGFR3 (RID system AF349), Phospho-VEGFR3 (Affinity AF3676), CCBE1 (Sigma SAB1402017).
After three washes in TBS-T, membranes were probed with HRP-conjugated secondary antibodies at 1/10000 dilution. Signals were visualized with chemiluminescence detection reagent (Sigma) on a Chemidoc (Biorad) digital acquisition system.

Row | Molecule | effect on apelin benefit on lymphedema (limb diameter) [1] | lymphatic vessel morphology / remodelling (lymphangiography) [2] | fibrosis [3] | lymphatic vessel dilatation (vessel area / diameter) [4] | effect on apelin-stimulated collector dilatation [5] | expression of genes related to VEGFC maturation (ADAMTS2, CCBE1) [6] | eNOS phosphorylation ([7]; HDLEC) | AKT activation (phosphorylation) ([7]; 24 h time course) | ERK activation ([7]; 24 h time course)
1 | COC(=O)[C@@H](N)CCCNC(=N)N[N+](=O)[O-] [L-NAME, N^G-nitro-L-arginine methyl ester] | reversed the beneficial effect of apelin on lymphedema | reverse apelin effect on lymphatic vascular network | no effect on fibrosis | inhibited | completely reversed | – | – | – | –
2 | VEGF-C: vascular endothelial growth factor C; media containing VEGF-C used as positive control on HDLEC (protein, listed as Homo sapiens) MHLLGFFSVACSLLAAALLPGPREAPAAAAAFESGLDLSDAEPDAGEATAYASKDLEEQLRSVSSVDELMTVLYPEYWKMYKCQLRKGGWQHNREQANLNSRTEETIKFAAAHYNTEILKSIDNEWRKTQCMPREVCIDVGKEFGVATNTFFKPPCVSVYRCGGCCNSEGLQCMNTSTSYLSKTLFEITVPLSQGPKPVTISFANHTSCRCMSKLDVYRQVHSIIRRSLPATLPQCQAANKTCPTNYMWNNHICRCLAQEDFMFSSDAGDDSTDGFHDICGPNKELDEETCQCVCRAGLRPASCGPHKELDRNSCQCVCKNKLFPSQCGANREFDENTCQCVCKRTCPRNQPLNPGKCACECTESPQKCLLKGKKFHHQTCSCYRRPCTNRQKACEPGFSYSEEVCRCVPSYWKRPQMS | – | – | – | – | – | improved | observed | strong activation | strong activation
